Article PMC4452589, “An evaluation of the brain distribution of [^11C]GSK1034702, a muscarinic-1 (M1) positive allosteric modulator in the living human brain using positron emission tomography” (EJNMMI Research, 2014)
Where two headings read alike, the source gives them in different places. Values belong to the compound of their own block, whether it stands above or below them.

Tests used:
[1] = [11C]GSK1034702 PET brain distribution and kinetics in healthy male humans; type: in vivo; conditions: human
Experimental: An open-label PET study (GSK study number 110771) was conducted to assess the transport of [^11C]GSK1034702 across the BBB and its distribution in the living human brain. Four healthy males aged between 35 and 55 years old, with body mass index (BMI) between 19.0 and 29.0 kg/m^2, and the absence of past or present neurological, medical or psychiatric illnesses and concomitant medications were enrolled. Clinical status was assessed by history, physical examination, routine blood tests, urine toxicology and electrocardiogram. All subjects provided written informed consent. The study was approved by the Edinburgh Independent Ethics Committee for Medical Research and permission to administer radioisotopes was obtained from the Administration of Radioactive Substances Advisory Committee of the UK. Subjects were recruited by and monitored by the Hammersmith Medicines Research (HMR) clinic. All scanning procedures were performed at the GlaxoSmithKline Clinical Imaging Center, Hammersmith Hospital, London.
Each subject underwent a single study day, during which PET imaging was performed. T1-weighted structural MRI scan was performed for all subjects to provide neuroanatomical information. A tracer dose of [^11C]GSK1034702 (mass <50 μg) was administered as an IV bolus immediately before each PET scan. During the scanning day, each subject received a baseline [^11C]GSK1034702 scan, followed by a single 5-mg oral dose (p.o.) of […] and a subsequent [^11C]GSK1034702 scan approximately 4 h post-dose. Subjects returned to the clinic for a follow-up visit 7 to 14 days following the oral dose of GSK1034702.
Dynamic PET data were acquired using a Siemens Biograph 6 Truepoint with TrueV PET-CT (Siemens Healthcare, Malvern, PA, USA) in three-dimensional (3D) mode. A computed tomography (CT) scan was acquired for attenuation correction of PET data prior to administration of the radiotracer. A cannula was inserted under local anaesthesia into the radial artery, contralateral to the tracer injection site, and used to collect arterial blood samples to estimate the time course of radioactivity and metabolism of GSK1034702. The radiotracer was administered as an IV bolus over 20 s, and dynamic PET data were acquired for 90 min.
Arterial blood radioactivity was measured continuously for the first 15 min after [^11C]GSK1034702 injection, using a continuous sampling system (ABSS Allogg, Mariefred, Sweden). In addition, 12 serial discrete blood samples were obtained (at 5, 10, 15, 20, 25, 30, 40, 50, 60, 70, 80 and 90 min post injection), to determine whole blood and plasma activity. Seven samples (at 5, 10, 20, 30, 50, 70 and 90 min) were further processed by HPLC to measure the fraction of plasma activity representing unmetabolised GSK1034702. For all human studies, the non-protein-bound fraction of [^11C]GSK1034702 in arterial plasma (fP) was assessed by ultrafiltration for the blood sample taken at the beginning of the scan.
Emission PET data were binned into 26 frames (durations: 8 × 15 s, 3 × 60 s, 5 × 2 min, […], 5 × 10 min) and reconstructed using Fourier re-binning and a two-dimensional (2D) filtered back projection algorithm with a ramp filter. Image data were then smoothed with a Gaussian filter (5 mm FWHM). The PET reconstruction process included corrections for scatter, randoms and attenuation. Dynamic PET data were corrected for motion via frame-to-frame image registration and aligned with the structural T1 MRI image using SPM5 (Wellcome Trust Centre for Neuroimaging, http://www.fil.ion.ucl.ac.uk/spm) with a mutual information cost function.
The CIC Neuroanatomical Atlas was non-linearly deformed into the individual's space to obtain a personalised anatomical parcellation of ROIs. These ROIs were applied to the dynamic emission data, and regional TACs were obtained for the whole brain, frontal cortex, occipital cortex, striatum, thalamus, hippocampus and cerebellum. […]

[2] = set-up: method as in GlaxoSmithKline (GSK) data on file; conditions: rat; ref GlaxoSmithKline (GSK) data on file; cited from earlier work
[3] = brain tissue binding by equilibrium dialysis, mouse; type: in vitro ADME; conditions: equilibrium dialysis 5 h
Experimental: (§1) The in vitro brain and plasma protein binding of GSK1034702 across a range of species was determined using equilibrium dialysis as described previously.

[4] = plasma free fraction by ultrafiltration, baboon arterial plasma; type: in vitro ADME; conditions: baboon (Papio anubis), mean ± SD, read-out: free fraction in plasma (fP)
Experimental: For all non-human primate studies, the non-protein-bound fraction of [^11C]GSK1034702 in arterial plasma (fP) was quantified using the following methodology: triplicate 200 μL aliquots of plasma collected before injection were mixed with [^11C]GSK1034702, pipetted into ultrafiltration units (Centrifree; Amicon, Danvers, MA, USA) and centrifuged at room temperature (20 min at 4,000 rpm). At the end of centrifugation, plasma and ultrafiltrate activities were counted and fP was calculated as the ratio of ultrafiltrate to total activity concentrations.

[5] = fP/fND ratio from equilibrium dialysis (expected VT for passive diffusion), primate; type: in vitro ADME; conditions: primate brain; monkey fP and monkey brain fND
Source text: If a value for fND can be obtained, then the assumption of passive diffusion across the BBB can be tested. Under the conditions of passive diffusion, at equilibrium, CFT = CFP, and Eq. 3 is simplified to:4 VT=fP/fND
A VT measurement from a PET biodistribution study can be compared to the fP/fND ratio, and passive diffusion can be assumed if the two are similar. Equilibrium dialysis provides a practical method for measurements of brain tissue fND (and also fP if necessary).
Regional TACs with an arterial plasma metabolite- corrected input function were fitted using compartmental analyses, and estimates of the delivery rate constant for transfer from arterial plasma to tissue (K1) and VT were obtained. VT estimates derived were compared to in vitro estimates derived from equilibrium dialysis to investigate the BBB transport process.
as §1

[6] = male, whole brain, intravenous, two-tissue compartmental model, read-out: whole brain VT

Kp ([1]; male, cortex, intravenous, read-out: VT measured in the human cortex): 4.9
Kp [1, 6]: 4.9
fraction unbound at 5 h, 1 μg/mL ([3]; brain tissue, read-out: f ND (brain-free fraction)): 0.13
Brain tissue binding ([3]; 1 μg/mL, mean ± SD, n = 6): 86.7 (±0.6) %
fraction unbound at 20 min [4]: 0.54
fP/fND ratio (expected VT if passive diffusion) [5]: 3.4
Compound: Cc1cc(F)c2[nH]c(=O)n(C3CCN(C4CCOCC4)CC3)c2c1 [GSK1034702]
brain/blood ratio [2]: 0.6

K 1 ([1]; Cerebellum, Subject 1 Scan 1 (baseline)): 0.23 mL.cm^−3.min^−1
K 1 ([1]; Cerebellum, Subject 2 Scan 1 (baseline)): 0.19 mL.cm^−3.min^−1
K 1 ([1]; Cerebellum, Subject 2 Scan 2 (post dose, 5 mg oral)): 0.15 mL.cm^−3.min^−1
K 1 ([1]; Cerebellum, Subject 4 Scan 1 (baseline)): 0.19 mL.cm^−3.min^−1
K 1 ([1]; Cerebellum, Subject 4 Scan 2 (post dose, 5 mg oral)): 0.19 mL.cm^−3.min^−1
K 1 ([1]; Cortex, Subject 1 Scan 1 (baseline)): 0.19 mL.cm^−3.min^−1
K 1 ([1]; Cortex, Subject 2 Scan 1 (baseline)): 0.16 mL.cm^−3.min^−1
K 1 ([1]; Cortex, Subject 2 Scan 2 (post dose, 5 mg oral)): 0.12 mL.cm^−3.min^−1
K 1 ([1]; Cortex, Subject 4 Scan 1 (baseline)): 0.16 mL.cm^−3.min^−1
K 1 ([1]; Cortex, Subject 4 Scan 2 (post dose, 5 mg oral)): 0.17 mL.cm^−3.min^−1
K 1 ([1]; MTL, Subject 1 Scan 1 (baseline)): 0.33 mL.cm^−3.min^−1
K 1 ([1]; MTL, Subject 2 Scan 1 (baseline)): 0.19 mL.cm^−3.min^−1
K 1 ([1]; MTL, Subject 2 Scan 2 (post dose, 5 mg oral)): 0.16 mL.cm^−3.min^−1
K 1 ([1]; MTL, Subject 4 Scan 1 (baseline)): 0.24 mL.cm^−3.min^−1
K 1 ([1]; MTL, Subject 4 Scan 2 (post dose, 5 mg oral)): 0.25 mL.cm^−3.min^−1
K 1 ([1]; Striatum, Subject 1 Scan 1 (baseline)): 0.20 mL.cm^−3.min^−1
K 1 ([1]; Striatum, Subject 2 Scan 1 (baseline)): 0.16 mL.cm^−3.min^−1
K 1 ([1]; Striatum, Subject 2 Scan 2 (post dose, 5 mg oral)): 0.13 mL.cm^−3.min^−1
K 1 ([1]; Striatum, Subject 4 Scan 1 (baseline)): 0.18 mL.cm^−3.min^−1
K 1 ([1]; Striatum, Subject 4 Scan 2 (post dose, 5 mg oral)): 0.18 mL.cm^−3.min^−1
K 1 ([1]; Thalamus, Subject 1 Scan 1 (baseline)): 0.29 mL.cm^−3.min^−1
K 1 ([1]; Thalamus, Subject 2 Scan 1 (baseline)): 0.19 mL.cm^−3.min^−1
K 1 ([1]; Thalamus, Subject 2 Scan 2 (post dose, 5 mg oral)): 0.15 mL.cm^−3.min^−1
K 1 ([1]; Thalamus, Subject 4 Scan 1 (baseline)): 0.20 mL.cm^−3.min^−1
K 1 ([1]; Thalamus, Subject 4 Scan 2 (post dose, 5 mg oral)): 0.20 mL.cm^−3.min^−1
K 1 ([1]; White matter, Subject 1 Scan 1 (baseline)): 0.13 mL.cm^−3.min^−1
K 1 ([1]; White matter, Subject 2 Scan 1 (baseline)): 0.10 mL.cm^−3.min^−1
K 1 ([1]; White matter, Subject 2 Scan 2 (post dose, 5 mg oral)): 0.08 mL.cm^−3.min^−1
K 1 ([1]; White matter, Subject 4 Scan 1 (baseline)): 0.11 mL.cm^−3.min^−1
K 1 ([1]; White matter, Subject 4 Scan 2 (post dose, 5 mg oral)): 0.11 mL.cm^−3.min^−1
change in MTL VT following oral dose of 5 mg GSK1034702 ([1]; both subjects with pre- and post-dose data): small (but non-significant) reduction
Kp ([1]; brain cortex, intravenous, Cortex, Subject 1 Scan 1 (baseline), read-out: V T): 5.37
Kp ([1]; brain cortex, intravenous, Cortex, Subject 2 Scan 1 (baseline), read-out: V T): 5
Kp ([1]; brain cortex, intravenous, Cortex, Subject 4 Scan 1 (baseline), read-out: V T): 5.57
Kp ([1]; brain cortex, po, Cortex, Subject 2 Scan 2 (post dose, 5 mg oral), read-out: V T): 4.03
Kp ([1]; brain cortex, po, Cortex, Subject 4 Scan 2 (post dose, 5 mg oral), read-out: V T): 4.81
Kp ([1]; brain striatum, intravenous, Striatum, Subject 1 Scan 1 (baseline), read-out: V T): 5.59
Kp ([1]; brain striatum, intravenous, Striatum, Subject 2 Scan 1 (baseline), read-out: V T): 5.05
Kp ([1]; brain striatum, intravenous, Striatum, Subject 4 Scan 1 (baseline), read-out: V T): 5.83
Kp ([1]; brain striatum, po, Striatum, Subject 2 Scan 2 (post dose, 5 mg oral), read-out: V T): 5.29
Kp ([1]; brain striatum, po, Striatum, Subject 4 Scan 2 (post dose, 5 mg oral), read-out: V T): 4.93
Kp ([1]; brain white matter, intravenous, White matter, Subject 4 Scan 1 (baseline), read-out: V T): 5.04
Kp ([1]; cerebellum, intravenous, Cerebellum, Subject 1 Scan 1 (baseline), read-out: V T): 5.33
Kp ([1]; cerebellum, intravenous, Cerebellum, Subject 2 Scan 1 (baseline), read-out: V T): 4.75
Kp ([1]; cerebellum, intravenous, Cerebellum, Subject 4 Scan 1 (baseline), read-out: V T): 5.17
Kp ([1]; cerebellum, po, Cerebellum, Subject 2 Scan 2 (post dose, 5 mg oral), read-out: V T): 3.69
Kp ([1]; cerebellum, po, Cerebellum, Subject 4 Scan 2 (post dose, 5 mg oral), read-out: V T): 4.56
Kp ([1]; medial temporal lobe (MTL), intravenous, MTL, Subject 1 Scan 1 (baseline), read-out: V T): 7.81
Kp ([1]; medial temporal lobe (MTL), intravenous, MTL, Subject 2 Scan 1 (baseline), read-out: V T): 13.3
Kp ([1]; medial temporal lobe (MTL), intravenous, MTL, Subject 4 Scan 1 (baseline), read-out: V T): 7.11
Kp ([1]; medial temporal lobe (MTL), po, MTL, Subject 2 Scan 2 (post dose, 5 mg oral), read-out: V T): 8.3
Kp ([1]; medial temporal lobe (MTL), po, MTL, Subject 4 Scan 2 (post dose, 5 mg oral), read-out: V T): 6.91
change in K1 following oral dose of 5 mg GSK1034702 ([1]; post-dose versus baseline scan): no significant change
change in VT following oral dose of 5 mg GSK1034702 ([1]; post-dose versus baseline scan): no significant change
Kp ([1]; thalamus, intravenous, Thalamus, Subject 1 Scan 1 (baseline), read-out: V T): 6.29
Kp ([1]; thalamus, intravenous, Thalamus, Subject 2 Scan 1 (baseline), read-out: V T): 5.44
Kp ([1]; thalamus, intravenous, Thalamus, Subject 4 Scan 1 (baseline), read-out: V T): 5.74
Kp ([1]; thalamus, po, Thalamus, Subject 2 Scan 2 (post dose, 5 mg oral), read-out: V T): 4.39
Kp ([1]; thalamus, po, Thalamus, Subject 4 Scan 2 (post dose, 5 mg oral), read-out: V T): 5.11
Kp ([1]; white matter, intravenous, White matter, Subject 1 Scan 1 (baseline), read-out: V T): 4.63
Kp ([1]; white matter, intravenous, White matter, Subject 2 Scan 1 (baseline), read-out: V T): 4.38
Kp ([1]; white matter, po, White matter, Subject 2 Scan 2 (post dose, 5 mg oral), read-out: V T): 4.01
Kp ([1]; white matter, po, White matter, Subject 4 Scan 2 (post dose, 5 mg oral), read-out: V T): 4.49
Kp ([1]; male, medial temporal lobe (MTL), intravenous, range over scans, read-out: VT in the MTL): 7 to 13
Kp ([1]; male, white matter, intravenous, range over scans, read-out: VT in the white matter): 4 to 5
Kp [1, 6]: 4.9
fraction unbound at 20 min [4]: 0.54 ± 0.21
Compound: [11CH3]c1cc(F)c2[nH]c(=O)n(C3CCN(C4CCOCC4)CC3)c2c1 [[^11C]GSK1034702]
